Values of other authors, collected in US20060211766A1, “Gelled immunomodulating topical compositions and a method of treating warts and other human papilloma virus skin infections” (priority 2004, published 2006).

System: rodents
Settings: in rodents

Structure (SMILES): CC(C)=O [Acetone]
- LD/50: 10.7 mg per kilogram
